“And” between values parts separate entries of the source, which are not always exact repeats. Equal values may be shown once.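 Each compound was tested at five concentrations against cells in 96-well plates for 48 hours. GI50 = concentration required for 50% inhibition of growth. TGI is the concentration that stops growth completely.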 *1 amine or outer side, *2 acyl side, *3 side chain or, on linkers, in order; H or OH if unused. Where a SMILES comes first, the peptide text is derived from it. Bridges are numbered along the chain shown (N, C = ends). [ ]: non-standard residue; d: D form. The star is where a group is joined. Phe(3,5-F2) = N[C@@H](Cc1cc(F)cc(F)c1)C(=O)O; Pro(4R-Me) = C[C@H]1CN[C@H](C(=O)O)C1; aThr = C[C@H](O)[C@H](N)C(=O)O; Pip = O=C(O)[C@@H]1CCCCN1; X10 = Fc1cc(C2CC2)ccc1N*; Abu = CC[C@H](N)C(=O)O; CO = O=C([*:1])[*:2]

The test system of this test is MDA-MB-468 breast. Put plainly: growth of human tumour cells (NCI), 48 h.
In the case of `Cn1cc(C2=C(c3c4n(c5ccccc35)CCN(C(N)=S)C4)C(=O)NC2=O)c2ccccc21`, the GI50 is 3.35 µM and the TGI was > 21 µM.
On to `O=c1[nH]c2ccc(N=Cc3c(O)[nH]c4ccccc34)cc2[nH]1`, for which the GI50 is > 25 µM and the TGI was > 25 µM.
Consider `O=C(CNc1c(Cl)cccc1Cl)Nc1ccc(-c2nc3ccccc3s2)cc1`, for which the GI50 was 0.0381 µM and the TGI was found to be 0.219 µM.
For the compound `Cc1ccc(C)c(COc2cc(NC(=O)c3ccc4c(c3)OCO4)ccc2N(C)S(C)(=O)=O)c1`, the GI50 was 0.114 µM and the TGI amounted to 0.44 µM.
In the same order, the values of `CCCCCc1c(C)[nH]c(/C=C2\N=C(c3ccc[nH]3)C=C2Oc2ccccc2)c1C` are 0.0104 µM and 0.301 µM.
Take `O=C(NC1CCC(Br)CC1)C1CCCC(S(=O)(=O)NC2CCCCC2)C1` (stereo not drawn): the GI50 was 6.44 µM and the TGI turned out to be 24.9 µM.
With `CC[C@@H]1NC(=O)[C@@H]2CCCCN2C(=O)[C@@H]2CCCN2C(=O)[C@@H](NC(=O)[C@H](Cc2cc(F)cc(F)c2)NC(=O)Nc2ccc(C3CC3)cc2F)[C@H](C)OC(=O)[C@@H]2C[C@@H](C)CN2C1=O` ({X10-CO}-[Phe(3,5-F2)][aThr]P[Pip][Abu][Pro(4R-Me)]; ester 2-C), the GI50 was 0.0267 µM and the TGI turned out to be 0.149 µM.
The matching figures for `Oc1ccc(CCl)c2cccnc12`: 3.39 µM and 54.3 µM.
The matching figures for `COc1cc(OC)cc(C2C(C#N)=C(N)Oc3c2ccc2ccc(O)cc32)c1` (stereo not drawn): < 0.01 µM and 0.98 µM.
The matching figures for `Nc1c(C(=O)Nc2ccccn2)sc2nc3c(cc12)CCCCC3`: 1.05 µM and > 50 µM.
For the compound `CCn1cc(C(=O)N/N=C/c2ccc(Br)cc2)c(=O)c2cc(F)c(N3CCNC(C)C3)c(F)c21` (stereo not drawn), the GI50 is 1.59 µM and the TGI was 3.09 µM.
In the same order, the values of `O=[N+]([O-])c1ccc2scc3c4ccccc4nc-3c2c1` are 0.919 µM and 2.25 µM.
In the same order, the values of `CC/C=C\C/C=C\C[C@H]1C/C=C2/C(=O)C=C[C@@H]2C/C=C\CCC(=O)O1` are 0.838 µM and 2.53 µM.
`CC(C)=NNc1ncnc2c1ncn2C1OC(CO)C(O)C1O` (stereo not drawn): the GI50 was 0.499 µM and the TGI stood at 3.9 µM.
The matching figures for `O=C(Nc1ccc(Oc2cccc(Cl)c2)c(Cl)c1)c1cnccn1`: 0.255 µM and > 15.8 µM.
`CCC[C@H](N[C@H]1CCc2cc(F)cc(F)c2C1)C(=O)Nc1cn(C(C)(C)CNCC(C)(C)C)cn1`: the TGI is 74.6 µM and 21.1 µM.
Take `FC(F)(F)CNc1nccc(-c2cnn3ncccc23)n1`: the GI50 was 8.49 µM and the TGI is > 25 µM.
As to `ClC1=C(Cl)C(Cl)=C(Cl)C1=Cc1ccccc1`, the GI50 was 1.31 µM and the TGI amounted to 2.69 µM.
Regarding `COc1cc(C(C)c2ccc3c(ccn3C)c2)cc(OC)c1OC` (stereo not drawn), the GI50 was < 0.01 µM and the TGI was found to be 62.1 µM.
The matching figures for `COc1cc(-c2nn(-c3ccc(NC(=O)NCCCNC(=O)c4ccccc4)cc3)cc2-c2ccncc2)ccc1Cl`: 0.284 µM and 0.827 µM.
In the same order, the values of `c1ccc(CSc2nnc3c4c5c(sc4nc(-c4cccnc4)n23)CCCCCC5)cc1` are 0.568 µM and 4.12 µM.
In the same order, the values of `Cc1cc(Nc2ncc(F)c(N[C@H]3[C@@H](C(N)=O)[C@@H]4C=C[C@H]3C4)n2)ccc1N1CCN(C)CC1` are < 0.0161 µM and 1.26 µM.
On to `CC(=O)Nc1ccc2c(C3=C(c4cn(C)c5ccccc45)C(=O)NC3=O)cn(C)c2c1`, for which the GI50 was 0.988 µM and the TGI was > 7.22 µM.
In the same order, the values of `O=C1Nc2ccccc2C1(c1c[nH]c2ccccc12)c1c[nH]c2ccccc12` are 2.08 µM and 4.56 µM.
In the same order, the values of `O=C(O)c1sccc1O` are 32.9 µM and > 100 µM.
In the same order, the values of `N=C1S/C(=C/c2ccc(-c3ccc4c(c3)C(=O)NC4=O)o2)C(=O)N1c1ccc(Br)cc1` are 4.57 µM and > 100 µM.
For `COc1cccc2cc(N(C)c3ncnc4ccccc34)ccc12`, the GI50 was < 0.01 µM and the TGI is 4.74 µM.
`COc1ccc(F)cc1/C=C/C(=O)/C=C(/C=C/c1cc(F)ccc1OC)OB(F)F`: the GI50 was 1.62 µM and the TGI turned out to be 4.37 µM.
Turning to `CCN(CC)c1ccc2c(cc1=O)[C@@H](NC(C)=O)CCc1cc(OC)c(OC)c(OC)c1-2`, the GI50 was 0.13 µM.
As for `C[C@]12CC[C@H](OC3OC(O)C(O)C(O)C3O)C=C1CCC1C2CC[C@]2(C)[C@@H](c3ccc(=O)oc3)CC[C@]12O` (stereo partly drawn), the GI50 was 0.00379 µM and 0.00512 µM; the TGI is 0.0202 µM and 0.0145 µM.
Take `COCCNCCc1cccc(Nc2ncc3c(n2)-c2ccccc2C(c2ccccc2F)C3)c1` (stereo not drawn): the GI50 was 1.9 µM and 2 µM; the TGI was 3.7 µM and 3.86 µM.
In the case of `FC(F)(F)c1ccc(CNc2ccc(Cc3c[nH]c4ncc(Cl)cc34)cn2)cn1`, the GI50 is 5.1 µM and 3.77 µM; the TGI was 34.4 µM and > 10 µM.
Consider `COc1cnc2c(c1)C(=O)c1c-2n(CCCBr)c(=O)c2cc([N+](=O)[O-])ccc12`, for which the GI50 was 0.291 µM and the TGI is 0.955 µM.
The matching figures for `Cc1nc2ccccc2c(/C=C/c2ccc(Cl)cc2)c1C(=O)/C=C/c1ccc(F)cc1`: 1.8 µM and 3.73 µM.
With `COc1ccc(C(O)c2cc3c(N)c(C(=O)Nc4cccc(OC)c4)sc3nc2C)cc1` (stereo not drawn), the GI50 is 1.23 µM and the TGI came to 4.61 µM.

These data come from PubChem BioAssay (NCI).
